We go through 22 molecules from patent EP4471049A1 (Zealand Pharma A/S, priority 2023, dated 2024).

As a reminder, the IC50 is the midpoint of a concentration-inhibition curve. High values mean a need for much substance, low ones inhibition by little substance.

Series [1] deals with porcine pepsin (P7125, Sigma Aldrich). As to the kind of experiment: SGF: sodium chloride, HCl, pH 1.2, with porcine pepsin (3.2 g/L). Particulars: 37 °C, up to 4 hours.
The test system of series [2] is porcine pancreatin (P1625, Sigma Aldrich). As to the kind of experiment: SIF: monobasic potassium phosphate, pH 6.8, with porcine pancreatin (10 g/L). The settings on record: 37 °C, up to 4 hours.
For series [3], the target named is T1, Nluc-IL23R fusion protein (human, UniProt Q5VWK5 22-629).
T1 construct: range 22-629; expressed with a secretion signal in HEK293 cells; used as crude membrane preparation; also called hIL-23R; human IL-23R; not shown: Nanoluc protein from the expression plasmid N1371 (Promega), N-terminal of IL-23R
T1 sequence (looked up): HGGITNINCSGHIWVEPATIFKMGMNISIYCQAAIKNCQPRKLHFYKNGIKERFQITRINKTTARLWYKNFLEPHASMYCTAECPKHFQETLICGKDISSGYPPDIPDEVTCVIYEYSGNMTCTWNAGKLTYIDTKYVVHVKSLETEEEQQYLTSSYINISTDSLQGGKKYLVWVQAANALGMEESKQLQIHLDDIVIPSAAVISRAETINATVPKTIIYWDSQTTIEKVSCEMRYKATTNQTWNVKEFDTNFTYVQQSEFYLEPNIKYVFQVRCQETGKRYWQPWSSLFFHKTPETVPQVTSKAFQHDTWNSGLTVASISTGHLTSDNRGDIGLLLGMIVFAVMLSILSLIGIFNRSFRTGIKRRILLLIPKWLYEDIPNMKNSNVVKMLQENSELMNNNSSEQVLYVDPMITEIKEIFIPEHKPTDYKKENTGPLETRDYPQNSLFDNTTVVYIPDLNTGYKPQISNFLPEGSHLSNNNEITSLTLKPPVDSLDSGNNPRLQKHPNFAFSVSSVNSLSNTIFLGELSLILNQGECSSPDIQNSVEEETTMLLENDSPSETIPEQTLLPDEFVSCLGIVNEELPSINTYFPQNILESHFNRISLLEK
As to the kind of experiment: BRET competition vs TAMRA-labelled peptide, Nluc-IL23R membranes. (In general: In BRET a luciferase serves as donor, and the signal depends on an acceptor being close.)

Series [4] concerns the target T2, human IL-23R endogenously expressed on DB cells (human, UniProt Q5VWK5 24-629).
T2 sequence (looked up): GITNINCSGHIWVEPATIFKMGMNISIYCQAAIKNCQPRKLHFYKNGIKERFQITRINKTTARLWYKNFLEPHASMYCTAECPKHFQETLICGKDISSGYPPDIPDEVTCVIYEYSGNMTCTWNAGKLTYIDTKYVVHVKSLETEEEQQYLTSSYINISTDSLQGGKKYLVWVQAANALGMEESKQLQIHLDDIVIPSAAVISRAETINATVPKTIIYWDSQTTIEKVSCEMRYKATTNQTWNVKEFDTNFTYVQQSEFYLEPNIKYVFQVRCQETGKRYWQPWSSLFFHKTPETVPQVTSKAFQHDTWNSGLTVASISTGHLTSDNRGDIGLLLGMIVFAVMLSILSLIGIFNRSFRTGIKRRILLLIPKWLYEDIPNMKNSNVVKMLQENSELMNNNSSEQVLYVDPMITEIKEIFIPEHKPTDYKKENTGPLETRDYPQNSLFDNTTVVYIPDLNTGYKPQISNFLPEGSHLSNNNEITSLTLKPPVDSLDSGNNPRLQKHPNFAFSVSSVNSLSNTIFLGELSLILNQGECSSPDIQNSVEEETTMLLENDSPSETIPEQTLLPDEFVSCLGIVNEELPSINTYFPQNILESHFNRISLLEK
As to the kind of experiment: cell-based or functional assay.

Series [5] deals with T1, Nluc-IL23R fusion protein. As to the kind of experiment: BRET competition vs TAMRA-labelled peptide, Nluc-IL23R membranes. The source holds these as a separate data set.

Read-outs that look alike come from different tables or passages of the source. *1 amine or outer side, *2 acyl side, *3 side chain or, on linkers, in order; H or OH if unused. Bridges are numbered along the chain shown (N, C = ends). Primed or numbered codes have the meaning given here. [ ]: non-standard residue; d: D form. 4‑Aminomethyl‑phenylacetyl = 4-aminomethyl-phenylacetyl unit, its amine closes the lactam, O=C(Cc1ccc(CN[*:1])cc1)[*:2]; Q(pyrrolidin)″ = (2S)-2-amino-5-oxo-5-pyrrolidin-1-yl-pentanoic acid, O=C(CC[C@H](N[*:1])C(=O)[*:2])N1CCCC1; αMeAla(3-pyridyl) = C[C@](N)(Cc1cccnc1)C(=O)O; 2Nal = N[C@@H](Cc1ccc2ccccc2c1)C(=O)O; AEF = NCCOc1ccc(C[C@H](N)C(=O)O)cc1; 3Pal = N[C@@H](Cc1cccnc1)C(=O)O; αMeL = CC(C)C[C@](C)(N)C(=O)O; Iso‑Dab = not defined here; Dab = NCC[C@H](N)C(=O)O

As to “[4-Aminomethyl-phenylacetyl](1c)*SE(2c)W[Q(Me)][Dab](2c)[Y(2-aminoethoxy)][2-Nal][2-Me-Leu]E(1c)[Dab][3-(3-Pyridyl)-Ala]”, the figures for the not cleaved in series [1] and in series [2] were 90% remaining after 4 h and 92% remaining after 4 h, respectively. Consider “[4-Aminomethyl-phenylacetyl](1c)*SE(2c)WQ[Dab](2c)[Y(2-aminoethoxy)][2-Nal][2-Me-Leu]E(1c)[Dab][3-(3-Pyridyl)-Ala]-[NH2]”, for which the not cleaved in series [1] turned out to be 90% remaining after 4 h. Further, the cleaved bond result in series [2] is recorded as “Dab12-3Pal13, major”. For the molecule “[4-Aminomethyl-phenylacetyl](1c)*SE(2c)W[Cit][Dab](2c)[Y(2-aminoethoxy)][2-Nal][2-Me-Leu]E(1c)[Dab][3-(3-Pyridyl)-Ala]”, the not cleaved in series [1] stood at 99% remaining after 4 h; in series [2], 91% remaining after 4 h. “[4-Aminomethyl-phenylacetyl](1c)*AE(2c)WQ[Dab](2c)[7-F-Trp][2-Nal][Aib]E(1c)[Dab][3-(3-Pyridyl)-Ala]”: the not cleaved in series [2] is 92% remaining after 4 h.

Consider “[4-Aminomethyl-phenylacetyl](1c)*SE(2c)WQ[Dab](2c)[Y(2-aminoethoxy)][2-Nal][2-Me-Leu]E(1c)[THP][3-(3-Pyridyl)-Ala]”, for which the values for the not cleaved in series [1] and in series [2] were 94% remaining after 4 h and 96% remaining after 4 h, respectively.

In turn, “[4-Aminomethyl-phenylacetyl](1c)*SE(2c)W[Q(2Me)][Dab](2c)[Y(2-aminoethoxy)][2-Nal][2-Me-Leu]E(1c)[Dab][3-(3-Pyridyl)-Ala]” registered a not cleaved in series [2] of 94% remaining after 4 h. As to “[4-Aminomethyl-phenylacetyl](1c)*AE(2c)WQ[Dab](2c)[7-AzaTrp][2-Nal][Aib]E(1c)[Dab][3-(3-Pyridyl)-Ala]”, the not cleaved in series [1] was found to be 98% remaining after 4 h; in series [2] it was 92% remaining after 4 h. Taken in the same sequence, the figures for “[4-Aminomethyl-phenylacetyl](1c)*SE(2c)WQ[Dab](2c)[Y(2-aminoethoxy)][2-Nal][2-Me-Leu]E(1c)[Dab][3-(3-Pyridyl)-Ala][Sar]-[NH2]” were 95% remaining after 4 h and 105% remaining after 4 h. With “[4-Aminomethyl-phenylacetyl](1c)*AE(2c)WQ[Dab](2c)[hPhe][2-Nal][Aib]E(1c)[Dab][3-(3-Pyridyl)-Ala]”, the results for the not cleaved in series [1] and in series [2] were 102% remaining after 4 h and 95% remaining after 4 h, respectively. Taken in the same sequence, the figures for “[4-Aminomethyl-phenylacetyl](1c)*SE(2c)WQ[Dab](2c)[Y(2-aminoethoxy)][2-Nal][2-Me-Leu]E(1c)[Dab][2-Me-3-(3-Pyridyl)-Ala]-[NH2]” were 104% remaining after 4 h and 109% remaining after 4 h. As for “[4-Aminomethyl-phenylacetyl](1c)*SE(2c)WQ[Dab](2c)[Y(2-aminoethoxy)][2-Nal][2-Me-Leu]E(1c)[Dab][3-(3-Pyridyl)-Ala][beta-hLeu]-[NH2]”, the results for the not cleaved in series [1] and in series [2] were 97% remaining after 4 h and 102% remaining after 4 h, respectively. As for “[4-Aminomethyl-phenylacetyl](1c)*SE(2c)WQ[Dab](2c)[Y(2-aminoethoxy)][2-Nal][2-Me-Leu]E(1c)[Dab][3-(3-Pyridyl)-Ala]-[NHMe]”, the not cleaved in series [2] is 105% remaining after 4 h.

Take “[Ac]-[Abu](16i)QTWQC(16i)[Y(2-aminoethoxy)]W[2-Me-Lys]ENG-[NH2]”: in series [1], the not cleaved is given as 100% remaining after 4 h. For “[4-Aminomethyl-phenylacetyl](1c)*SE(2c)W[Dab(Ac)][Dab](2c)[Y(2-aminoethoxy)][2-Nal][2-Me-Leu]E(1c)[Dab][3-(3-Pyridyl)-Ala]”, the not cleaved in series [2] was found to be 91% remaining after 4 h.

On to “[4-Aminomethyl-phenylacetyl](1c)*AE(2c)WQ[Dab](2c)[Y(2-aminoethoxy)][2-Nal][2-Me-Leu]E(1c)[Dab][3-(3-Pyridyl)-Ala]-[NHMe]”, for which the not cleaved in series [1] worked out at 103% remaining after 4 h; in series [2] it was 90% remaining after 4 h.

In series [1], “[4-Aminomethyl-phenylacetyl](1c)*SE(2c)WQ[Dab](2c)[Y(2-aminoethoxy)][2-Nal][2-Me-Leu]E(1c)[Dab][{d}3-(3-Pyridyl)-Ala]-[NH2]” returned a not cleaved of 105% remaining after 4 h.

For the molecule “[4-Aminomethyl-phenylacetyl](1c)*SE(2c)W[Orn][Dab](2c)[Y(2-aminoethoxy)][2-Nal][2-Me-Leu]E(1c)[Dab][3-(3-Pyridyl)-Ala]”, the not cleaved in series [1] and in series [2] was 110% remaining after 4 h in each case.

B1: I4 (isomer 3) (peptide)
peptide: H-ECWLCYYRNCNCM-NH2
modifications: linker 5-10, 2-12 via 1,3‑dithio‑propan‑2‑one
notes: compound from Heinis et al., 2020, synthesised for comparison
Turning to B1, the “% displacement (hIL-23R binding)” value in series [3] was found to be 84%. Further, the “hIL-23 (pSTAT3) antagonist % inhibition” value in series [4] was 23%. For the molecule [4‑Aminomethyl‑phenylacetyl]SEW[Q(pyrrolidin)″][Dab][AEF][2Nal][αMeL]E[Dab]-NH2 (lactam N-10, 3-6) [Ref 146], the % displacement (hIL-23R binding) in series [5] is 105%. Further, in series [4], the “hIL-23 (pSTAT3) antagonist % inhibition” value was 98% and the “hIL-23 (pSTAT3) antagonist IC50” value turned out to be 42 nM. Consider [4‑Aminomethyl‑phenylacetyl]SEWQ[Dab][AEF][2Nal][αMeL]E[Dab][H(Me)]-NH2 (lactam N-10, 3-6) [Compound 14], for which, in series [5], the % displacement (hIL-23R binding) came to 102% and the IC50 turned out to be 0.11 nM. Moreover, in series [4], the “hIL-23 (pSTAT3) antagonist % inhibition” value stood at 99% and the “hIL-23 (pSTAT3) antagonist IC50” value amounted to 7.2 nM.

B2: Compound 20 (peptide)
peptide: [4‑Aminomethyl‑phenylacetyl]AEWQ[Dab][AEF][2Nal][αMeL]E[Dab][3Pal]-NHMe
modifications: lactam N-10, 3-6
SMILES: CNC(=O)[C@H](Cc1cccnc1)NC(=O)[C@H](CCN)NC(=O)[C@@H]1CCC(=O)NCc2ccc(cc2)CC(=O)N[C@@H](C)C(=O)N[C@H]2CCC(=O)NCC[C@H](NC(=O)[C@H](CCC(N)=O)NC(=O)[C@H](Cc3c[nH]c4ccccc34)NC2=O)C(=O)N[C@@H](Cc2ccc(OCCN)cc2)C(=O)N[C@@H](Cc2ccc3ccccc3c2)C(=O)N[C@@](C)(CC(C)C)C(=O)N1
In series [5], B2 showed a % displacement (hIL-23R binding) of 97%. Further, in series [4], the “hIL-23 (pSTAT3) antagonist % inhibition” value came out at 101% and the “hIL-23 (pSTAT3) antagonist IC50” value was determined as 26 pM.

B3: Compound 15 (peptide)
peptide: [4‑Aminomethyl‑phenylacetyl]SEWQ[Dab][AEF][2Nal][αMeL]E[Iso‑Dab][αMeAla(3-pyridyl)]-NH2
modifications: lactam N-10, 3-6; reading uncertain; also: iso-Dab11 joined via side-chain amine
In series [5], B3 showed a % displacement (hIL-23R binding) of 96%. In series [4], the “hIL-23 (pSTAT3) antagonist % inhibition” value worked out at 97% and the “hIL-23 (pSTAT3) antagonist IC50” value was 12 nM.
